In patent publication US9708314B2, “Heterocyclic amide compound” (NISSAN CHEMICAL INDUSTRIES, LTD., priority 2013, dated 2017):

What was measured:
Assay type in all cases: in vivo
[1] = test system: Echinochloa oryzacola Vasing.; experiment: Test Example 2: herbicidal activity, application during weed generation in submerged conditions; settings: Eighteenth Table
How it was run: (§1)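 Post-emergence application under submerged conditions: water-diluted emulsion dosed onto the water surface (g/ha) when weeds reach one- to two-leaf stage. Soil flooded to 4 cm; greenhouse 25–30 °C. Herbicidal ratio graded in six classes, 0 (≤5%) to 5 (≥90%), at three weeks.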

[2] = test system: Monochoria vaginalis; experiment: as above; settings: Eighteenth Table
How it was run: as §1

[3] = test system: Scirpus juncoides; experiment: as above; settings: Eighteenth Table
How it was run: as §1

[4] = test system: Abutilon theophrasti; experiment: Test Example 4: herbicidal effect by application to foliage (diluvial soil, plastic box)
How it was run: (§2)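 Emulsion-formulated compound, diluted to a predetermined g/ha dose, applied by small sprayer to leaves and stems of 14-day-old seedlings grown in sterilized diluvial soil. Effect rated on 0–5 herbicidal-ratio scale three weeks on.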

[5] = test system: Alopecurus myosuroides; experiment: as above
How it was run: as §2

[6] = test system: Apera spica-venti.; experiment: as above
How it was run: as §2

[7] = test system: Avena fatua; experiment: as above
How it was run: as §2

[8] = test system: Chenopodium album; experiment: as above
How it was run: as §2

[9] = test system: Digitaria ciliaris; experiment: as above
How it was run: as §2

[10] = test system: Echinochloa crus-galli var. crus-galli; experiment: as above
How it was run: as §2

[11] = test system: Galium spurium; experiment: as above
How it was run: as §2

[12] = test system: Lolium multiflorum Lam.; experiment: as above
How it was run: as §2

[13] = test system: Setaria viridis; experiment: as above
How it was run: as §2

[14] = test system: Veronica persica; experiment: as above
How it was run: as §2

[15] = test system: Beta vulgaris ssp. vulgaris; experiment: Test Example 4: effect on crop by application to foliage (diluvial soil, plastic box)
How it was run: as §2

[16] = test system: Brassica campestris L.; experiment: as above
How it was run: as §2

[17] = test system: Glycine max; experiment: as above
How it was run: as §2

[18] = test system: Triticum aestivum; experiment: as above
How it was run: as §2

[19] = test system: Zea mays; experiment: as above
How it was run: as §2

[20] = test system: directly sowed Oryza sativa; experiment: as above
How it was run: as §2

[21] = application herbicide amount 192 g/ha
[22] = application herbicide amount 320 g/ha
[23] = Application herbicide amount 320 g/ha
[24] = Application herbicide amount 320 g/ha, effect on crop

For `Cc1cc(C(=O)Nc2nnnn2C)c2nnc(C(C)C)n2c1C(F)(F)F` [2-050], the “A (Echinochloa oryzicola Vasing.) herbicidal ratio grade” value [1, 21] was 1 (Herbicidal ratio of 5% or more and less than 20%), the “C (Monochoria vaginalis) herbicidal ratio grade” value [2, 21] was 2 (Herbicidal ratio of 20% or more and less than 40%) and the “B (Scirpus juncoides) herbicidal ratio grade” value [3, 21] was 0 (Herbicidal ratio of 5% or less (almost no effect)). For the same compound, the “M (Abutilon theophrasti) herbicidal effect grade” value ([4]; foliage application, 192 g/ha) was 3 (Herbicidal ratio of 40% or more and less than 70%), the “J (Alopecurus myosuroides) herbicidal effect grade” value ([5]; foliage application, 192 g/ha) was 0 (Herbicidal ratio of 5% or less (almost no effect)) and the “L (Apera spica-venti.) herbicidal effect grade” value ([6]; foliage application, 192 g/ha) was 0 (Herbicidal ratio of 5% or less (almost no effect)). For the same compound, the “I (Avena fatua) herbicidal effect grade” value ([7]; foliage application, 192 g/ha) was 2 (Herbicidal ratio of 20% or more and less than 40%), the “O (Chenopodium album) herbicidal effect grade” value ([8]; foliage application, 192 g/ha) was 5 (Herbicidal ratio of 90% or more (almost completely withered)) and the “F (Digitaria ciliaris) herbicidal effect grade” value ([9]; foliage application, 192 g/ha) was 3 (Herbicidal ratio of 40% or more and less than 70%). For the same compound, the “H (Echinochloa crus-galli var. crus-galli) herbicidal effect grade” value ([10]; foliage application, 192 g/ha) was 3 (Herbicidal ratio of 40% or more and less than 70%), the “Q (Galium spurium) herbicidal effect grade” value ([11]; foliage application, 192 g/ha) was 0 (Herbicidal ratio of 5% or less (almost no effect)) and the “K (Lolium multiflorum Lam.) herbicidal effect grade” value ([12]; foliage application, 192 g/ha) was 0 (Herbicidal ratio of 5% or less (almost no effect)). The “G (Setaria viridis) herbicidal effect grade” value ([13]; foliage application, 192 g/ha) was 1 (Herbicidal ratio of 5% or more and less than 20%), the “R (Veronica persica) herbicidal effect grade” value ([14]; foliage application, 192 g/ha) was 3 (Herbicidal ratio of 40% or more and less than 70%) and the “f (Beta vulgaris ssp. vulgaris) effect on crop grade” value ([15]; foliage application, 192 g/ha) was 3 (Herbicidal ratio of 40% or more and less than 70%). The “g (Brassica campestris L.) effect on crop grade” value ([16]; foliage application, 192 g/ha) was 0 (Herbicidal ratio of 5% or less (almost no effect)), the “c (Glycine max) effect on crop grade” value ([17]; foliage application, 192 g/ha) was 0 (Herbicidal ratio of 5% or less (almost no effect)) and the “e (Triticum aestivum) effect on crop grade” value ([18]; foliage application, 192 g/ha) was 0 (Herbicidal ratio of 5% or less (almost no effect)). The “b (Zea mays) effect on crop grade” value ([19]; foliage application, 192 g/ha) was 0 (Herbicidal ratio of 5% or less (almost no effect)) and the “d (directly sowed Oryza sativa) effect on crop grade” value ([20]; foliage application, 192 g/ha) was 3 (Herbicidal ratio of 40% or more and less than 70%).
`Cc1cc(-c2nnc3c(C(=O)Nc4nnc(C)o4)ccc(C(F)(F)F)n23)n(C)n1` [1-056] was tested, and the “A (Echinochloa oryzicola Vasing.) herbicidal ratio grade” value [1, 22] was 5 (Herbicidal ratio of 90% or more (almost completely withered)), the “C (Monochoria vaginalis) herbicidal ratio grade” value [2, 22] was 4 (Herbicidal ratio of 70% or more and less than 90%) and the “B (Scirpus juncoides) herbicidal ratio grade” value [3, 22] was 4 (Herbicidal ratio of 70% or more and less than 90%). For the same compound, the M [4, 23] was 5 (Herbicidal ratio of 90% or more (almost completely withered)), the J [5, 23] was 2 (Herbicidal ratio of 20% or more and less than 40%) and the L [6, 23] was 3 (Herbicidal ratio of 40% or more and less than 70%). The I [7, 23] was 3 (Herbicidal ratio of 40% or more and less than 70%), the O [8, 23] was 5 (Herbicidal ratio of 90% or more (almost completely withered)) and the F [9, 23] was 5 (Herbicidal ratio of 90% or more (almost completely withered)). For the same compound, the H [10, 23] was 5 (Herbicidal ratio of 90% or more (almost completely withered)), the Q [11, 23] was 4 (Herbicidal ratio of 70% or more and less than 90%) and the K [12, 23] was 2 (Herbicidal ratio of 20% or more and less than 40%). The G [13, 23] was 5 (Herbicidal ratio of 90% or more (almost completely withered)), the R [14, 23] was 5 (Herbicidal ratio of 90% or more (almost completely withered)) and the f [15, 24] was 5 (Herbicidal ratio of 90% or more (almost completely withered)). For the same compound, the g [16, 24] was 5 (Herbicidal ratio of 90% or more (almost completely withered)), the c [17, 24] was 4 (Herbicidal ratio of 70% or more and less than 90%) and the e [18, 24] was 1 (Herbicidal ratio of 5% or more and less than 20%). For the same compound, the b [19, 24] was 4 (Herbicidal ratio of 70% or more and less than 90%) and the d [20, 24] was 4 (Herbicidal ratio of 70% or more and less than 90%).
